Assay results taken from ChEMBL document CHEMBL1131843, “Synthesis and biological evaluation of novel 1beta-methylcarbapenems having a new moiety at C-2” (Bioorg Med Chem Lett, 1999).
Values after ≈ are worked out from the molar mass of the structure shown.

Experiments:
[1] = system: Staphylococcus aureus; assay: In vitro antibacterial activity against Staphylococcus aureus SG 511; type: functional
[2] = system: Enterobacter cloacae; assay: In vitro antibacterial activity against Enterobacter cloacae 1321E; type: functional
[3] = system: Escherichia coli; assay: In vitro antibacterial activity against Escherichia coli 1507E; type: functional
[4] = system: Pseudomonas aeruginosa; assay: In vitro antibacterial activity against Pseudomonas aeruginosa 1771M; type: functional
[5] = system: Pseudomonas aeruginosa; assay: In vitro antibacterial activity against Pseudomonas aeruginosa 1592E; type: functional
[6] = system: Salmonella typhimurium; assay: In vitro antibacterial activity against Salmonella Typhimurium; type: functional, Salmonella enterica subsp. enterica serovar Typhimurium
[7] = biological target: T1, Dipeptidase 1 (Sus scrofa) (UniProt P22412); assay: Relative hydrolysis to meropenem by partially purified porcine renal Dehydropeptidase-1 was reported.; set-up: scale not given: the % may be the effect or the level left
T1 sequence (whole entry): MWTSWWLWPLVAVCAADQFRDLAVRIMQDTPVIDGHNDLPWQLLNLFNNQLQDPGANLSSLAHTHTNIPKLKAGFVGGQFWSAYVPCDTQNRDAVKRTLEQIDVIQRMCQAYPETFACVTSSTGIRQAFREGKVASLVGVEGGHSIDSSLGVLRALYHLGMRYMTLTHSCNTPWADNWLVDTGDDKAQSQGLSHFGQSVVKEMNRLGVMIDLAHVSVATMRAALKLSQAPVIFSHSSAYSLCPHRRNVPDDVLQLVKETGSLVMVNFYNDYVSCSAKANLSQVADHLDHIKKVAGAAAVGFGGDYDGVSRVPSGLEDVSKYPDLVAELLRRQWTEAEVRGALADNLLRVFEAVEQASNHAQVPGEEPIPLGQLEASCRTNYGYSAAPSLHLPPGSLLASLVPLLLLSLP

[8] = system: Escherichia coli; assay: In vitro antibacterial activity against Escherichia coli 078; type: functional
[9] = system: Enterococcus faecium; assay: In vitro antibacterial activity against Streptococcus faecium MD 8b; type: functional
[10] = system: Klebsiella aerogenes; assay: In vitro antibacterial activity against Klebsiella aerogenes 1522E; type: functional
[11] = system: Streptococcus pyogenes; assay: In vitro antibacterial activity against Streptococcus pyogenes 77A; type: functional
[12] = Area under curve (AUC) was determined in mice at a single subcutaneous administration of 40 mg/kg (n=4); type: ADME, organism-based; set-up: dose 40 mg/kg, route subcutaneous; conditions: mouse, in vivo, sc
[13] = Maximum plasma concentration was determined in mice at a single subcutaneous administration of 40 mg/kg (n=4); type: ADME, organism-based; set-up: dose 40 mg/kg, route subcutaneous; conditions: mouse, sc
[14] = system: Mus musculus; assay: In vivo therapeutic efficacy was determined against Streptococcus pyogenes 77A by a single sc administration in mice; type: functional; conditions: read-out: PD50
[15] = system: Mus musculus; assay: In vivo therapeutic efficacy was determined against Pseudomonas aeruginosa 1771M by a single sc administration in mice; type: functional; conditions: read-out: PD50
[16] = Half life was determined in mice at a single subcutaneous administration of 40 mg/kg (n=4); type: ADME, organism-based; set-up: dose 40 mg/kg, route subcutaneous; conditions: mouse, in vivo, sc
[17] = Maximum time was determined in mice at a single subcutaneous administration of 40 mg/kg (n=4); type: ADME, organism-based; set-up: dose 40 mg/kg, route subcutaneous; conditions: mouse, in vivo, sc
[18] = system: Mus musculus; assay: In vivo therapeutic efficacy was determined against Escherichia coli 078 by a single sc administration in mice; type: functional; conditions: read-out: PD50
[19] = system: Mus musculus; assay: In vivo therapeutic efficacy was determined against Staphylococcus aureus Y-80-1953 by a single sc administration in mice; type: functional; conditions: read-out: PD50
[20] = Staphylococcus aureus, read-out: MIC
[21] = Enterobacter cloacae, read-out: MIC
[22] = Pseudomonas aeruginosa, read-out: MIC
[23] = Salmonella enterica, read-out: MIC
[24] = Escherichia coli, read-out: MIC
[25] = Enterococcus faecium, read-out: MIC
[26] = Klebsiella aerogenes, read-out: MIC
[27] = Streptococcus pyogenes, read-out: MIC

C[C@@H](O)[C@H]1C(=O)N2C(C(=O)O)=C(SCCNC=N)C[C@H]12 [IMIPENEM ANHYDROUS]
MIC [1, 20]: 0.013 µg/mL (≈ 0.0434 µM)
MIC [2, 21]: 0.195 µg/mL (≈ 0.651 µM)
MIC [3]: 0.195 µg/mL (≈ 0.651 µM)
MIC [4, 22]: 0.195 µg/mL (≈ 0.651 µM)
MIC [5, 22]: 0.781 µg/mL (≈ 2.61 µM)
MIC [6, 23]: 0.781 µg/mL (≈ 2.61 µM)
Stability [7]: 19%
MIC [8, 24]: 0.098 µg/mL (≈ 0.327 µM)
MIC [9, 25]: 1.56 µg/mL (≈ 5.22 µM)
MIC [10, 26]: 0.391 µg/mL (≈ 1.31 µM)
MIC [11, 27]: 0.004 µg/mL (≈ 0.0134 µM)

CC(=O)O[C@H]1CN(C(=O)[C@@H]2C[C@H](SC3=C(C(=O)O)N4C(=O)[C@H]([C@@H](C)O)[C@H]4[C@H]3C)CN2)C[C@@H]1OC(C)=O (stereo in doubt; 1a) [listing 1 of 2 here]
MIC [1, 20]: 0.098 µg/mL (≈ 0.186 µM)
AUC [12]: 6830 ng·h/mL
MIC [2, 21]: 0.013 µg/mL (≈ 0.0247 µM)
MIC [3]: 0.025 µg/mL (≈ 0.0476 µM)
MIC [4, 22]: 0.098 µg/mL (≈ 0.186 µM)
MIC [5]: 0.195 µg/mL (≈ 0.371 µM)
Cmax [13]: 16600 ng/mL
ED50 [14]: 4.79 mg/kg
ED50 [15]: 3.93 mg/kg
half-life [16]: 15 min
Tmax [17]: 10.2 min
ED50 [18]: 0.94 mg/kg
MIC [6, 23]: 0.049 µg/mL (≈ 0.0932 µM)
MIC [8, 24]: 0.013 µg/mL (≈ 0.0247 µM)
MIC [9, 25]: 6.25 µg/mL (≈ 11.9 µM)
ED50 [19]: 2.18 mg/kg
MIC [10, 26]: 0.049 µg/mL (≈ 0.0932 µM)
MIC [11, 27]: 0.007 µg/mL (≈ 0.0133 µM)

C[C@@H](O)[C@H]1C(=O)N2C(C(=O)O)=C(S[C@@H]3CN[C@H](C(=O)N4C[C@H](OC(N)=O)[C@@H](OC(N)=O)C4)C3)[C@H](C)[C@H]12
MIC [1, 20]: 0.195 µg/mL (≈ 0.37 µM)
MIC [2, 21]: 0.025 µg/mL (≈ 0.0474 µM)
MIC [3]: 0.025 µg/mL (≈ 0.0474 µM)
MIC [4, 22]: 0.391 µg/mL (≈ 0.741 µM)
MIC [5, 22]: 0.781 µg/mL (≈ 1.48 µM)
MIC [6, 23]: 0.049 µg/mL (≈ 0.0929 µM)
Stability [7]: 53%
MIC [8, 24]: 0.025 µg/mL (≈ 0.0474 µM)
MIC [9, 25]: 6.25 µg/mL (≈ 11.8 µM)
MIC [10, 26]: 0.049 µg/mL (≈ 0.0929 µM)
MIC [11, 27]: 0.025 µg/mL (≈ 0.0474 µM)

CC(=O)O[C@H]1CN(C(=O)[C@@H]2C[C@H](SC3=C(C(=O)O)N4C(=O)[C@H]([C@@H](C)O)[C@H]4[C@H]3C)CN2)C[C@@H]1OC(C)=O (stereo in doubt; 1f) [listing 1 of 2 here]
Stability [7]: 66%

CC(=O)O[C@@H]1CN(C(=O)[C@@H]2C[C@H](SC3=C(C(=O)O)N4C(=O)[C@H]([C@@H](C)O)[C@H]4[C@H]3C)CN2)C[C@H]1OC(C)=O
MIC [1, 20]: 0.195 µg/mL (≈ 0.371 µM)
MIC [2, 21]: 0.013 µg/mL (≈ 0.0247 µM)
MIC [3]: 0.025 µg/mL (≈ 0.0476 µM)
MIC [4, 22]: 0.098 µg/mL (≈ 0.186 µM)
MIC [5, 22]: 0.098 µg/mL (≈ 0.186 µM)
MIC [6, 23]: 0.049 µg/mL (≈ 0.0932 µM)
Stability [7]: 50%
MIC [8, 24]: 0.013 µg/mL (≈ 0.0247 µM)
MIC [9, 25]: 6.25 µg/mL (≈ 11.9 µM)
MIC [10, 26]: 0.049 µg/mL (≈ 0.0932 µM)
MIC [11, 27]: 0.007 µg/mL (≈ 0.0133 µM)

CC(=O)O[C@H]1CN(C(=O)[C@@H]2C[C@H](SC3=C(C(=O)O)N4C(=O)[C@H]([C@@H](C)O)[C@H]4[C@H]3C)CN2)C[C@@H]1OC(C)=O (stereo in doubt; 1a) [listing 2 of 2 here]
Stability [7]: 63%

CC(=O)O[C@H]1CN(C(=O)[C@@H]2C[C@H](SC3=C(C(=O)O)N4C(=O)[C@H]([C@@H](C)O)[C@H]4[C@H]3C)CN2)C[C@@H]1OC(C)=O (stereo in doubt; 1f) [listing 2 of 2 here]
MIC [1]: 0.195 µg/mL (≈ 0.371 µM)
MIC [2]: 0.013 µg/mL (≈ 0.0247 µM)
MIC [4]: 0.195 µg/mL (≈ 0.371 µM)
MIC [5]: 1.563 µg/mL (≈ 2.97 µM)
MIC [6]: 0.049 µg/mL (≈ 0.0932 µM)
MIC [8]: 0.025 µg/mL (≈ 0.0476 µM)
MIC [9]: 6.25 µg/mL (≈ 11.9 µM)
MIC [10]: 0.049 µg/mL (≈ 0.0932 µM)
MIC [11]: 0.007 µg/mL (≈ 0.0133 µM)

C[C@@H](O)[C@H]1C(=O)N2C(C(=O)O)=C(S[C@H]3CN[C@H](C(=O)N4C[C@H](O)[C@@H](O)C4)C3)[C@H](C)[C@H]12
MIC [1, 20]: 0.195 µg/mL (≈ 0.442 µM)
MIC [2, 21]: 0.195 µg/mL (≈ 0.442 µM)
MIC [3]: 0.098 µg/mL (≈ 0.222 µM)
MIC [4, 22]: 0.781 µg/mL (≈ 1.77 µM)
MIC [5, 22]: 100 µg/mL (≈ 226 µM)
MIC [6, 23]: 0.195 µg/mL (≈ 0.442 µM)
MIC [8, 24]: 0.098 µg/mL (≈ 0.222 µM)
MIC [9, 25]: 25 µg/mL (≈ 56.6 µM)
MIC [10, 26]: 0.195 µg/mL (≈ 0.442 µM)
MIC [11, 27]: 0.025 µg/mL (≈ 0.0566 µM)

C[C@@H](O)[C@H]1C(=O)N2C(C(=O)O)=C(S[C@H]3CN[C@H](C(=O)N4C[C@@H](O)[C@H](O)C4)C3)[C@H](C)[C@H]12
MIC [1, 20]: 0.195 µg/mL (≈ 0.442 µM)
MIC [2, 21]: 0.195 µg/mL (≈ 0.442 µM)
MIC [3]: 0.195 µg/mL (≈ 0.442 µM)
MIC [4, 22]: 0.391 µg/mL (≈ 0.886 µM)
MIC [5, 22]: 100 µg/mL (≈ 226 µM)
MIC [6, 23]: 0.391 µg/mL (≈ 0.886 µM)
MIC [8, 24]: 0.098 µg/mL (≈ 0.222 µM)
MIC [9, 25]: 12.5 µg/mL (≈ 28.3 µM)
MIC [10, 26]: 0.195 µg/mL (≈ 0.442 µM)
MIC [11, 27]: 0.013 µg/mL (≈ 0.0294 µM)

C[C@@H](O)[C@H]1C(=O)N2C(C(=O)O)=C(S[C@@H]3CN[C@H](C(=O)N(C)C)C3)[C@H](C)[C@H]12 [MEROPENEM]
MIC [1, 20]: 0.098 µg/mL (≈ 0.256 µM)
AUC [12]: 6860 ng·h/mL
MIC [2, 21]: 0.025 µg/mL (≈ 0.0652 µM)
MIC [3]: 0.025 µg/mL (≈ 0.0652 µM)
MIC [4, 22]: 0.049 µg/mL (≈ 0.128 µM)
MIC [5, 22]: 0.195 µg/mL (≈ 0.509 µM)
Cmax [13]: 15600 ng/mL
ED50 [14]: 4.55 mg/kg
ED50 [15]: 4.26 mg/kg
half-life [16]: 16.2 min
Tmax [17]: 10.2 min
ED50 [18]: 0.65 mg/kg
MIC [6, 23]: 0.025 µg/mL (≈ 0.0652 µM)
Stability [7]: 100%
MIC [8, 24]: 0.013 µg/mL (≈ 0.0339 µM)
MIC [9, 25]: 12.5 µg/mL (≈ 32.6 µM)
ED50 [19]: 11.1 mg/kg
MIC [10, 26]: 0.049 µg/mL (≈ 0.128 µM)
MIC [11, 27]: 0.002 µg/mL (≈ 0.00522 µM)
